Measured values published in patent US7579356B2, “Thia-tetraazaacenaphthylene kinase inhibitors” (Janssen Pharmaceutica NV, priority 2005, dated 2009).
pIC50: −log10 of the molar value. Values joined by “and” are separate entries in the source; they are usually repeats but may differ in a detail not shown here. Equal values may be shown once.

Key:
[1] = target: T1, c-Src kinase (human) (Homo sapiens, UniProt P12931); test: c-Src Kinase Assay; type: biochemical; conditions: for pIC50: read-out: c-Src IC50 (in parentheses); for inhibition at 2 µM / c-Src % Inhibition: test concentration of 2 μM, multiple values are separate assay results; for c-Src % Inhibition: 2 µM
T1 construct: purchased Upstate Biotechnology, Lake Placid, N.Y
Method in brief: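 Inhibition was read as 33P incorporation, counted on P30 filtermats, after a 40 min, 30° C reaction. Human c-Src acted on 100 μM Cdc2 peptide with 5 μM ATP (final), pH 7.0 MOPS/MgCl2. Values are percent inhibition at 2 μM compound, or IC50 where determined.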

[2] = test system: HCT-116 colon carcinoma; test: Cell Proliferation Inhibition Assay, HCT-116 (14C-thymidine); type: cell-based; conditions: Homo sapiens, HCT-116 cell proliferation
Excerpt: (§1) Cell Proliferation Inhibition Assay
(§2) The ability of a test compound to inhibit unregulated cell proliferation may be determined by measuring incorporation of ^14C-labelled thymidine into newly synthesized DNA within cell lines derived from carcinomas originating from several tissues. Accordingly, the effect of a test compound on proliferation of cells with a variety of phenotypes may be determined.
(§3) Carcinoma cell lines used include the HeLa cervical adenocarcinoma from the American Type Culture Collection (ATCC Cat. #CCL2), A375 malignant melanoma (ATCC Cat. #CRL-1619), HCT-116 colon carcinoma (ATCC Cat. #CCL-247), SKBR3 breast carcinoma (ATCC Cat. #HTB-30) and BT474 breast carcinoma (ATCC Cat. #HTB-20).
(§4) The carcinoma cells were trypsinized and counted. The cells (3000-8000 count) were added to each well of a 96-well CytoStar tissue culture treated scintillating microplate (Amersham #RPNQ0160) in complete medium (100 μL) and the plate was then incubated in complete medium for 24 hrs at 37° C. in an inert atmosphere containing 5% CO2.
(§5) Test compound (1 μL) in 100% DMSO was added to the plate test-wells with DMSO only added to control-wells. The plate was incubated in complete medium for a second 24 hr period at 37° C. in an atmosphere containing 5% CO2.
(§6) An aliquot of a solution of Methyl ^14C-thymidine (56 mC/mmol) (NEN #NEC568 or AMersham #CFA532) and complete medium (20 uL to provide 0.2 μCl/well) was then added to each well and the plate was incubated for a third 24 hr period at 37° C. in an atmosphere containing 5% CO2.
(§7) The plate contents were then discarded, the plate washed twice with PBS (200 μL) and then PBS (200 μL) was added to each well. The plate was sealed and the degree of methyl ^14C-thymidine incorporation was quantified on a Packard Top Count.
(§8) Cell proliferation of the Hela cell line was measured using the ATP-Lite method as described in the ATP Lite Kit (Perkin-Elmer Kit Number 6106941) or the C^14 method as described above. Cell proliferation of the other cell lines was measured using the C^14 method.

[3] = test system: A375 malignant melanoma; test: Cell Proliferation Inhibition Assay, A375 (14C-thymidine); type: cell-based; conditions: Homo sapiens, A-375
Excerpt: as §1, §2, §3, §4, §5, §6, §7, §8

[4] = target: T2, Lyn kinase (human) (Homo sapiens, UniProt P07948); test: Lyn Kinase Assay; type: biochemical; conditions: for inhibition at 2 µM / % Inhibition (Lyn): test concentration of 2 μM; for % Inhibition (Lyn): 2 µM
T2 construct: purchased Upstate Biotechnology, Lake Placid, N.Y
Method in brief: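 Radiometric filter-binding assay with recombinant human Lyn, poly(Glu,Tyr) substrate (0.1 mg/mL final), 5 μM ATP plus γ-33P-ATP in MOPS pH 7.5/Mg acetate buffer; 40 min at 30 °C, stopped with phosphoric acid, counted by scintillation. Reported as percent inhibition at 2 μM, with IC50 (μM) where determined.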

T1 sequence (P12931 whole entry): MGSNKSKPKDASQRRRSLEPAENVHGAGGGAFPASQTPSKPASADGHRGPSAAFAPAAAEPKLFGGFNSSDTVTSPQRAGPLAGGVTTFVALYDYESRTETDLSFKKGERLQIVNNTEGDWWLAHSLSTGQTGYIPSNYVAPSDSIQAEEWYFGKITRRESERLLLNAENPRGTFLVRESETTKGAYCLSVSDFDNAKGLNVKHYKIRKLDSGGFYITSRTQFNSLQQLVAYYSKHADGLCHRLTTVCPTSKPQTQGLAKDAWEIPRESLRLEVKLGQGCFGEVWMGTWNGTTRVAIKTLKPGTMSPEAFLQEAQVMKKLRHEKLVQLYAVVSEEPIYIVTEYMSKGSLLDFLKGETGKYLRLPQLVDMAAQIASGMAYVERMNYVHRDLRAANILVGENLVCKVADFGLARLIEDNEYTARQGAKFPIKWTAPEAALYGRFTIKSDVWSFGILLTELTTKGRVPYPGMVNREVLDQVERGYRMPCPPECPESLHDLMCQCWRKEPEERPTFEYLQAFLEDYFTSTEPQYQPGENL
T2 sequence (P07948 whole entry): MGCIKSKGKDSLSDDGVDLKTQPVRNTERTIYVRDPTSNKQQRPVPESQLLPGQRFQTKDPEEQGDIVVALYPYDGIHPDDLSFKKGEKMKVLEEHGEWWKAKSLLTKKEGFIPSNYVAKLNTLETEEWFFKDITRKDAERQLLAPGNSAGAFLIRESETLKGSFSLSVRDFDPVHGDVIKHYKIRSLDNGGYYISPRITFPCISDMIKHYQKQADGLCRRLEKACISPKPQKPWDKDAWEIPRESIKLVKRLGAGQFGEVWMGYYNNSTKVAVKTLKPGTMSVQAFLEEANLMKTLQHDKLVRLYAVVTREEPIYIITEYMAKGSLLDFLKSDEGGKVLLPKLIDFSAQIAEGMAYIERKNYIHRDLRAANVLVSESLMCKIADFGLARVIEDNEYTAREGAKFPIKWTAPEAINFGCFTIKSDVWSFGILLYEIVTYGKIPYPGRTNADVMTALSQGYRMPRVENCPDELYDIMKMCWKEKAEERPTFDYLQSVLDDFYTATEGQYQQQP

Structure (SMILES) | pIC50 [1] | inhibition at 2 µM [1] [%] | pIC50 [2] | pIC50 [3] | inhibition at 2 µM [4] [%] | % Inhibition (Lyn) [4] | c-Src % Inhibition [1] | pIC50 ([4]; value in parentheses)
O=C(O)c1sc2ncnc3c2c1NC(=O)N3c1ccc2c(cnn2Cc2cccc(F)c2)c1 [Cpd 79, 5-[1-(3-fluoro-benzyl)-1H-indazol-5-yl]-4-oxo-4,5-dihydro-3H-1-thia-3,5,6,8-tetraaza-acenaphthylene-2-carboxylic acid] | < 3.70 | -17 | 4.00 | 4.00 |  |  |  | 
O=C(Nc1ccc(CN2CCCCC2)cc1)c1sc2ncnc3c2c1NC(=O)N3c1ccc2c(ccn2Cc2cccc(F)c2)c1 [Cpd 87, 5-[1-(3-fluoro-benzyl)-1H-indol-5-yl]-4-oxo-4,5-dihydro-3H-1-thia-3,5,6,8-tetraaza-acenaphthylene-2-carboxylic acid (4-piperidin-1-ylmethyl-phenyl)-amide] | < 3.70 |  | 5.43 | 5.17 |  |  |  | 
COc1ccc(Cl)c(N2C(=O)Nc3c(C(=O)Nc4ccc(OC)c(OC)c4)sc4ncnc2c34)c1 [Cpd 49, 5-(2-chloro-5-methoxy-phenyl)-4-oxo-4,5-dihydro-3H-1-thia-3,5,6,8-tetraaza-acenaphthylene-2-carboxylic acid (3,4-dimethoxy-phenyl)-amide] | < 3.70 | 23 |  |  | 50 |  |  | 
O=C(Nc1ccc(CN2CCCCC2)cc1)c1sc2ncnc3c2c1NC(=O)N3c1ccc(OCc2ccccn2)c(Cl)c1 [Cpd 89, 5-[3-chloro-4-(pyridin-2-ylmethoxy)-phenyl]-4-oxo-4,5-dihydro-3H-1-thia-3,5,6,8-tetraaza-acenaphthylene-2-carboxylic acid (4-piperidin-1-ylmethyl-phenyl)-amide] |  | 44 |  |  |  | 4% and 0.5% |  | 
O=C(Nc1ccc(CN2CCCCC2)cc1)c1sc2ncnc3c2c1NC(=O)N3c1ccc(Oc2ccccc2)cc1 [Cpd 96, 4-oxo-5-(4-phenoxy-phenyl)-4,5-dihydro-3H-1-thia-3,5,6,8-tetraaza-acenaphthylene-2-carboxylic acid (4-piperidin-1-ylmethyl-phenyl)-amide] | < 3.70 |  |  |  | 27 | 16.8% |  | 
O=C(Nc1ccc(CN2CCOCC2)cc1)c1sc2ncnc3c2c1NC(=O)N3c1ccc(Oc2ccccc2)c(F)c1 [Cpd 113, 5-(3-fluoro-4-phenoxy-phenyl)-4-oxo-4,5-dihydro-3H-1-thia-3,5,6,8-tetraaza-acenaphthylene-2-carboxylic acid (4-morpholin-4-ylmethyl-phenyl)-amide] |  | 68 |  |  | 60 | 55% | 54% | 
O=C(Nc1ccc(NCCCN2CCOCC2)nc1)c1sc2ncnc3c2c1NC(=O)N3c1cccc(Br)c1 [Cpd 64, 5-(3-bromo-phenyl)-4-oxo-4,5-dihydro-3H-1-thia-3,5,6,8-tetraaza-acenaphthylene-2-carboxylic acid [6-(3-morpholin-4-yl-propylamino)-pyridin-3-yl]-amide] |  | -14 |  |  | 26 |  |  | 
COc1cc(NC(=O)c2sc3ncnc4c3c2NC(=O)N4c2ccc(Oc3ccccc3)cc2)ccc1OCCN1CCCCC1 [Cpd 100, 4-oxo-5-(4-phenoxy-phenyl)-4,5-dihydro-3H-1-thia-3,5,6,8-tetraaza-acenaphthylene-2-carboxylic acid [3-methoxy-4-(2-piperidin-1-yl-ethoxy)-phenyl]-amide] | < 3.70 |  |  |  | 40 | 50% |  | 
CN1CCN(Cc2ccc(NC(=O)c3sc4ncnc5c4c3NC(=O)N5c3ccc(OCc4ccccn4)c(Cl)c3)cc2)CC1 [Cpd 90, 5-[3-chloro-4-(pyridin-2-ylmethoxy)-phenyl]-4-oxo-4,5-dihydro-3H-1-thia-3,5,6,8-tetraaza-acenaphthylene-2-carboxylic acid [4-(4-methyl-piperazin-1-ylmethyl)-phenyl]-amide] |  | 8 |  |  | -8.1 |  | 4% | 

Continued by rising pIC50 [1], values first:

pIC50 [1] | inhibition at 2 µM [1] [%] | pIC50 [2] | pIC50 [3] | inhibition at 2 µM [4] [%] | % Inhibition (Lyn) [4] | c-Src % Inhibition [1] | pIC50 ([4]; value in parentheses) | Structure (SMILES)
5.09 | 20 |  |  | 60 |  |  |  | COc1ccc(Cl)c(N2C(=O)Nc3c(C(=O)Nc4ccc(OCCN5CCOCC5)c(OC)c4)sc4ncnc2c34)c1 [Cpd 50, 5-(2-chloro-5-methoxy-phenyl)-4-oxo-4,5-dihydro-3H-1-thia-3,5,6,8-tetraaza-acenaphthylene-2-carboxylic acid [3-methoxy-4-(2-morpholin-4-yl-ethoxy)-phenyl]-amide]
5.10 | 38 |  |  | 50 |  |  |  | COc1cc(N2C(=O)Nc3c(C(=O)Nc4ccc(CN5CCN(C)CC5)cc4)sc4ncnc2c34)c(Cl)cc1Cl [Cpd 60]
5.18 | 33 |  |  | 70 |  |  |  | COc1ccc(Cl)c(N2C(=O)Nc3c(C(=O)Nc4ccc(CN5CCOCC5)cc4)sc4ncnc2c34)c1 [Cpd 51, 5-(2-chloro-5-methoxy-phenyl)-4-oxo-4,5-dihydro-3H-1-thia-3,5,6,8-tetraaza-acenaphthylene-2-carboxylic acid (4-morpholin-4-ylmethyl-phenyl)-amide]
5.38 | 53 |  |  | 71 |  |  |  | COc1cc(N2C(=O)Nc3c(C(=O)Nc4ccc(CN5CCCC5)cc4)sc4ncnc2c34)c(Cl)cc1Cl [Cpd 43, 5-(2,4-dichloro-5-methoxy-phenyl)-4-oxo-4,5-dihydro-3H-1-thia-3,5,6,8-tetraaza-acenaphthylene-2-carboxylic acid (4-pyrrolidin-1-ylmethyl-phenyl)-amide]
~5.70 |  |  |  | 36.5 | 26.6% |  |  | O=C(Nc1ccc(CN2CCOCC2)cc1)c1sc2ncnc3c2c1NC(=O)N3c1ccc(Oc2ccccc2)cc1 [Cpd 97, 4-oxo-5-(4-phenoxy-phenyl)-4,5-dihydro-3H-1-thia-3,5,6,8-tetraaza-acenaphthylene-2-carboxylic acid (4-morpholin-4-ylmethyl-phenyl)-amide]
5.74 | 55 |  |  | 70 | 69% | 60% |  | O=C(Nc1ccc(CN2CCOCC2)cc1)c1sc2ncnc3c2c1NC(=O)N3c1c(Cl)cccc1Cl [Cpd 104, 5-(2,6-dichloro-phenyl)-4-oxo-4,5-dihydro-3H-1-thia-3,5,6,8-tetraaza-acenaphthylene-2-carboxylic acid (4-morpholin-4-ylmethyl-phenyl)-amide]
5.83 | 42 |  |  | 52 |  |  |  | COC(=O)c1sc2ncnc3c2c1NC(=O)N3c1c(Cl)ccc2c1OCO2 [Cpd 54, 5-(5-chloro-benzo[1,3]dioxol-4-yl)-4-oxo-4,5-dihydro-3H-1-thia-3,5,6,8-tetraaza-acenaphthylene-2-carboxylic acid methyl ester]
6.23 |  |  |  | 30.7 | 50.0% | 63% and 41% |  | CN1CCN(Cc2ccc(NC(=O)c3sc4ncnc5c4c3NC(=O)N5c3ccc(Oc4ccccc4)cc3)cc2)CC1 [Cpd 98, 4-oxo-5-(4-phenoxy-phenyl)-4,5-dihydro-3H-1-thia-3,5,6,8-tetraaza-acenaphthylene-2-carboxylic acid [4-(4-methyl-piperazin-1-ylmethyl)-phenyl]-amide]
6.26 | 77 |  |  | 55 |  |  | 5.84 | O=C(Nc1ccc(CN2CCOCC2)cc1)c1sc2ncnc3c2c1NC(=O)N3c1ccc(N2CCOCC2)cc1 [Cpd 123, 5-(4-morpholin-4-yl-phenyl)-4-oxo-4,5-dihydro-3H-1-thia-3,5,6,8-tetraaza-acenaphthylene-2-carboxylic acid (4-morpholin-4-ylmethyl-phenyl)-amide]
7.12 | 83 |  |  | 92 |  |  |  | O=C(Nc1ccc(CN2CCOCC2)cc1)c1sc2ncnc3c2c1NC(=O)N3c1c(Cl)ccc2c1OCO2 [Cpd 62, 5-(5-chloro-benzo[1,3]dioxol-4-yl)-4-oxo-4,5-dihydro-3H-1-thia-3,5,6,8-tetraaza-acenaphthylene-2-carboxylic acid (4-morpholin-4-ylmethyl-phenyl)-amide]
